Source: patent publication US20240041878A1, “APELIN RECEPTOR MODULATORS FOR TREATMENT OF A DISORDER OR DISEASE ASSOCIATED WITH BBB PERMEABILITY” (BioAge Labs, Inc., priority 2022, published 2024)

What was measured:
26 month-old mice = experiment: Total BDNF ELISA in hippocampus of aged mice; format: in vivo, mouse; details: 50 mg/kg BID P.O. one week, p<0.05
Experimental: The mice were handled in accordance with principles and guidelines established by the “Guide for the Care and Use of Laboratory Animals” and overseen by the BioAge Lab's institutional animal care and use committee (IACUC). Mice were housed conventionally in a constant temperature (20-22° C.) and humidity (40%-60%) animal room with a 12/12 h light/dark cycle and free access to food and water. 26 month-old mice were randomized based on the body weight and body condition scores to two groups (vehicle or BGE-105, n=8). Mice were administered P.O. vehicle or BGE-105 at 50 mg/kg (BID) for one week. […]
Hippocampal samples were homogenized with 30 volumes of radioimmunoprecipitation immunoassay (RIPA) buffer with Halt Protease and Phosphatase Inhibitor (Thermofisher) before being spun at 16,000×g for 20 minutes at 4° C. and supernatant removed to new, labeled tube. Total protein concentrations for each sample were analyzed with Pierce BCA Protein Assay Kit (Thermofisher) according to manufacturer's instructions, then all samples were diluted to 0.2 μg/μL with RIPA buffer.
For quantitative analysis of hippocampal BDNF expression, tissue samples were assessed with Quantikine® enzyme-linked immunosorbent assay (ELISA) for Total BDNF (R&D Systems) according to manufacturer's instructions. […]

Mouse astrocyte cells = experiment: CXCL1 and IL-6 ELISA of astrocyte culture media after RAC treatment; format: cell-based
Experimental: To stimulate astrocytes into a reactive state found in aging and neurodegenerative diseases per previous publications (Liddelow et al., 2017; Barbar et al., 2020), a combination of the cytokines TNF-α and IL-1α, and complement factor C1q, were added at 30 ng/mL, 3 ng/mL, and 400 ng/mL, respectively, into astrocyte culture media to make 'reactive astrocyte cocktail' (RAC) media. […] Bachem, Cat. #4029110), BAY-11-7082 (50 μM; Abcam, Cat. #ab141228) or equal volume of vehicle (0.01% DMSO in PBS) (hereafter referred to as 'RAC treatment'). Cells in Groups 3-6 were treated with RAC for 24 hours, with or without the test compounds (n=4 per group). • Group 1: Control [CON] • Group 2: CON+BGE-105 (50 nM) [CON+105] • Group 3: Reactive control treated with RAC only [RAC] • Group 4: RAC+BGE-105 (50 nM) [RAC+105] • Group 5: RAC+Pyrm-Apelin-13 (50 nM) • Group 6: RAC+BAY-11-7082 (NF-κB inhibitor; 50 μM) [RAC+BAY] Media from each tested cell group was collected for cytokine release analysis. Cells were lysed for RNA collection and RT-PCR was performed to synthesis cDNA under standard conditions. Next, transcriptome analysis was performed to determine the expression level of astrocyte genes or astrocyte responsive genes. Changes of expression was normalized to β-actin (FIGS. 8 and 9). Exemplary biomarkers include CCL2, CXCL10, CXCL11, CXCL1, CXCL2, CXCL3, CXCL8, EDN1, […]3, CIS, CTRL, C3, CFB, VEGF, and IL-6. For analysis of cytokines secreted by astrocytes, culture media was collected after RAC treatment, centrifuged at 10,000 RPM for 5 minutes to pellet any debris, and supernatant was transferred to a new tube and assayed immediately or frozen at -80° C. For individual analysis of CXCL1 or IL-6 concentrations, cell culture supernatant was diluted 1:50 or 1:10, respectively, and assessed using mouse-specific ELISA kits per manufacturer's protocols (R&D Systems, Cat. #DY453 and #DY406).

Mouse primary astrocytes = experiment: Proteome Profiler Mouse Cytokine Array of astrocyte culture supernatant; format: cell-based; details: RAC+BGE-105 [50 nM and 250 nM] versus RAC
Experimental: To stimulate astrocytes into a reactive state found in aging and neurodegenerative diseases per previous publications (Liddelow et al., 2017; Barbar et al., 2020), a combination of the cytokines TNF-α and IL-1α, and complement factor C1q, were added at 30 ng/mL, 3 ng/mL, and 400 ng/mL, respectively, into astrocyte culture media to make ‘reactive astrocyte cocktail’ (RAC) media. […] Bachem, Cat. #4029110), BAY-11-7082 (50 μM; Abcam, Cat. #ab141228) or equal volume of vehicle (0.01% DMSO in PBS) (hereafter referred to as ‘RAC treatment’). […] To assess a panel of cytokines and chemokines, cell culture supernatant was diluted 1:10 and assayed using the Proteome Profiler Mouse Cytokine Array Kit, Panel A (R&D Systems, Cat. #ARY006) per manufacturer's protocol. Dot blots were analyzed in Fiji (Schindelin et al. 2012. Fiji: an open-source platform for biological-image analysis. Nat Methods 9, 676-682) and transcription factor enrichment was performed with Enrichr (Chen, et al. 2013. Enrichr: interactive and collaborative HTML5 gene list enrichment analysis tool. BMC Bioinformatics 14, 128).

aged mice with TBI = experiment: Traumatic brain injury (TBI) model in aged mice, controlled cortical impact; format: in vivo, mouse; details: given orally before and/or after controlled cortical impact
Source text: This study assessed the effects of BGE-105 on mitigating the effects of CNS damage and inflammation, and accelerating functional recovery, in a mouse model of TBI.
BGE-105 is given orally to aged mice at various potential doses for a period of time before and/or after controlled cortical impact (model of TBI in mice); during the experimental period, mice undergo various behavioral assessments to understand whether BGE-105 treatment affected motor and cognitive functions known to be impaired by TBI. After, the brains of mice are analyzed for neuroinflammatory markers by a variety of histological and biochemical methods

COc1cccc(OC)c1-n1c(NS(=O)(=O)[C@@H](C)[C@H](C)c2ncc(C)cn2)nnc1-c1cncc(C)c1 [BGE-105, (2S,3R)—N-(4-(2,6-dimethoxyphenyl)-5-(5-methyl-3-pyridinyl)-4H-1,2,4-triazol-3-yl)-3-(5-methyl-2-pyrimidinyl)-2-butanesulfonamide]
increase of concentration of total BDNF in the hippocampus (26 month-old mice): 20% | concentration of CXCL1 and IL-6 in media of control astrocytes (Mouse astrocyte cells; CON+105 (50 nM) versus CON): no or minimal impacts | astrocyte release of CXCL1 (FIG. 9) (Mouse astrocyte cells; RAC+105, BGE-105 50 nM, versus RAC, p=0.0032): greatly reduced | CXCL1 concentration/release (FIG. 12) (Mouse astrocyte cells; RAC+BGE-105 50 nM): about 40000 pg/ml | IL-6 concentration/release (FIG. 12) (Mouse astrocyte cells; RAC+BGE-105 50 nM): 5000 to 10000 pg/mL | astrocytic release of IL-6 (FIG. 9) (Mouse astrocyte cells; RAC+BGE-105, 50 nM, versus RAC, p=0.0008): reduced | cytokine and chemokine release (array panel) (Mouse primary astrocytes): significantly reduced | neuroinflammatory markers and neuro-inflammation (aged mice with TBI): decrease of neuroinflammatory markers
